Entries after “also recorded” stand apart in the source; their conditions may differ.
Experiments:
[1] = Double blind placebo-controlled crossover study: Lawton Observed Affect Scale - Past (negative and positive affect); format: in vivo, human
From the text: (§1) Each patient in the this example was diagnosed with "probable" DAT by a neurologist according to DSM III-R and NINCDS-ARDDA criteria. These generally accepted criteria include deficits in two or more areas of cognition, progressive worsening of memory and other cognitive functions, no disturbances of consciousness, and absence of systemic disorders or other brain disease that in and of themselves could account for the progressive deficits in memory and cognition. (McKhann et al., Neurology, 34: 939-944 (1984). Each patient received physical examination and laboratory examination including complete blood count with differential, liver function tests, thyroid function tests including TSH, iron binding capacity, BUN, creatinine, and electrolytes.
(§2) A double blind placebo-controlled crossover design was used with each period of study lasting six weeks. Dronabinol or placebo was administered on a fixed dose schedule, 2.5 mg capsule or identically looking placebo capsule every morning and noon. Subjects were randomly assigned to placebo first or dronabinol first groups. Possible side effects were determined every week by asking the primary caregivers if the patient experienced any of a list of possible symptoms. A list of these symptoms observed in twelve patients over seventy weeks is identified in Table 2 below.
(§3) Baseline measurements were taken the week prior to randomization and treatment initiation. Behavior measures were obtained weekly for the 12 week duration of the trial. Repeated measures on these variables were therefore available for six weeks on dronabinol and six weeks on placebo for each subject.
Patients' affect was measured using Lawton Observed Affect Scale - Past (Lawton et al., J. Gerontol. [B], 51B: P3-14 (1996)). This scale consists of six items, three measuring positive affect (pleasure, interest and contentment) and three measuring negative affect (anger, anxiety/fear and depression/sadness) on a 5 point scale (from 1=never to 5=more than 3 time a day). The negative and positive affect scores were calculated by adding scores of the appropriate items.
(§4) Statistical analysis was performed using Statistix 4.1 (Analytic Software). Repeated measures ANOVA for the 12 weeks of the study was done to test for effects of order, time and treatment on-study variables.

[2] = Double blind placebo-controlled crossover study: Cohen-Mansfield Agitation Inventory (CMAI), disturbed behavior; format: in vivo, human
From the text: as §1
(§5) Eleven of the patients were on a psychoactive medication before the beginning of dronabinol study and were maintained on the same medication during the study period. Four patients were receiving regular doses of neuroleptics (perphenazine, thiothixene, haloperidol or thioridazine), 4 patients were receiving regular doses of benzodiazepienes (3 lorazepam and one alprazolam), and 8 patients were receiving regular doses of antidepressants. The antidepressants included sertraline (8 patients), trazodone (4 patients) and desipramine (1 patient). Three patients were on both sertraline and trazodone, and one patient was switched from trazodone to doxepin. Antidepressant treatment was initiated at least 4 weeks before the start of the study and the mean duration of antidepressant treatment before study initiation was 7 months. Eleven patients had orders for psychoactive medications as needed (PRN). These included lorazepam in 4 patients and alprazolam, trazodone, doxepin, haloperidol, perphenazine and thioridazine in one patient each. The patients received these medications very rarely, on the average 9.7 doses/6 weeks during the placebo administration and 7.2 doses/6 weeks during dronabinol treatment.
as §2, §3
The disturbed behavior was measured by the Cohen-Mansfield Agitation Inventory (CMAI)(Cohen-Mansfieldet al., J. Gerontol. Med. Sci., 44: M77-84 (1989)) which is a widely used instrument with good psychometric properties. Twenty nine items of this inventory are rated by frequency (from 1=never to 7=constantly or almost constantly) and by disruptiveness (from 1=not at all to 5=extremely). For each observation period, the total score was calculated by multiplying the frequency and disruptiveness of individual items and adding the products. The CMAI items observed are identified in Table 3 below.
as §4

[3] = four compartment model; Agurell et al. 1986; cited from earlier work
[4] = AIDS patients, after dronabinol treatment; Gorter 1991, Beal 1995; cited from earlier work
[5] = Possible side effects determined every week by asking the primary caregivers (Table 2); format: in vivo, human
From the text: as §1, §2

[6] = cited from earlier work
[7] = Use of as needed (PRN) psychoactive medication during the study; format: in vivo, human; details: during dronabinol treatment; placebo administration 9.7
From the text: as §5, with “The patients received these medications very rarely, on the average 9.7 doses/6 weeks during the placebo administration and 7.2 doses/6 weeks during dronabinol treatment.” left out
A double blind placebo-controlled crossover design was used with each period of study lasting six weeks. […] Possible side effects were determined every week by asking the primary caregivers if the patient experienced any of a list of possible symptoms. […]

[8] = decrease during the 12 weeks study period (both phases), df=5,143
[9] = dronabinol first vs placebo first, df=5,143
[10] = repeated measures ANOVA, df=5,143
[11] = repeated measures ANOVA, df=1,143
[12] = repeated measures ANOVA, df=5,143, dronabinol/placebo crossover
[13] = 12 patients, 2.5 mg capsule every morning and noon, six weeks
[14] = seventy weeks observed, 2.5 mg capsule every morning and noon

SMILES: CCCCCc1cc(O)c2c(c1)OC(C)(C)[C@@H]1CCC(C)=C[C@@H]21 (relative stereo) [dronabinol, (6aR-trans)-6a,7,8,10a-tetrahydro-6,6,9-trimethyl-3-pentyl-6H-dibenzo[b,d]pyran-1-ol]
- Negative affect score, F(time) [1, 8]: 2.46
- Negative affect score, p for F(time) [1, 8]: 0.045
- Positive affect score, change ([1]; dronabinol and placebo treatments, six weeks each): positive affect remained similar during both treatments; also recorded: did not change the Positive Affect
- Negative affect score, decrease by order of treatment ([1]; dronabinol first vs placebo first): the decrease was greater for those who received dronabinol first, compared to those who received placebo first
- Negative affect score, F(order×time) [1, 9]: 5.45
- Negative affect score, p for F(order×time) [1, 9]: < 0.0005
- Negative affect score, change vs placebo periods ([1]; on dronabinol vs placebo periods): decreased more while patients were on dronabinol then during the placebo periods
- Negative affect score, F(time×treatment) [1, 10]: 3.98
- Negative affect score, p for F(time×treatment) [1, 10]: 0.004
- Disturbed behavior (CMAI score), change ([2]; during dronabinol treatment, 2.5 mg morning and noon, six weeks): Disturbed behavior decreased during dronabinol treatment
- Disturbed behavior (CMAI), persistence of decrease ([2]; placebo period following treatment with dronabinol): this decrease in disturbed behavior persisted during the placebo period following treatment with dronabinol; also recorded: carried over to the following placebo period
- CMAI score, F(order×treatment) [2, 11]: 2.78
- CMAI score, p for F(order×treatment) [2, 11]: 0.12
- CMAI score as percentage of the baseline, F(order×time) [2, 12]: 2.35
- CMAI score as percentage of the baseline, p for order×time interaction [2, 12]: 0.05
- Disturbed behavior, difference in the second treatment period ([2]; second treatment period of crossover): no difference in the disturbed behavior in the second treatment period
- Agitation (CMAI and Observed Affect Scale), change ([2]; two scales: CMAI and Observed Affect Scale): Decreased agitation
- Initial half-life [3]: four
- Terminal half-life [3]: 25 to 36 h
- Mood / sense of well-being [4]: elevated mood or sense of well-being
- Anxiety/nervousness, percentage of total patients [5, 13]: 92%
- Ataxia, percentage of total patients [5, 13]: 16%
- Depression, percentage of total patients [5, 13]: 16%
- Diarrhea, percentage of total patients [5, 13]: 16%
- Emotional lability, percentage of total patients [5, 13]: 92%
- Euphoria, percentage of total patients [5, 13]: 58%
- Flushing, percentage of total patients [5, 13]: 8%
- Hallucination, percentage of total patients [5, 13]: 33%
- Headache, percentage of total patients [5, 13]: 8%
- Increased confusion, percentage of total patients [5, 13]: 8%
- Muscle pain, percentage of total patients [5, 13]: 16%
- Paranoid reaction, percentage of total patients [5, 13]: 33%
- Somnolence, percentage of total patients [5, 13]: 67%
- Sweating, percentage of total patients [5, 13]: 8%
- Tiredness, percentage of total patients [5, 13]: 75%
- Incidence of seizure ([5]; dronabinol treated patient): one
- Euphoria as an adverse reaction, frequency vs placebo ([5]; dronabinol treatment vs placebo periods): reported more frequently and in more patients during the dronabinol treatment than during placebo periods
- Somnolence, frequency vs placebo ([5]; patients treated with dronabinol vs patients on placebo): twice as common
- Anxiety/nervousness, percentage of weeks [5, 14]: 53%
- Ataxia, percentage of weeks [5, 14]: 8%
- Depression, percentage of weeks [5, 14]: 6%
- Diarrhea, percentage of weeks [5, 14]: 4%
- Emotional lability, percentage of weeks [5, 14]: 46%
- Euphoria, percentage of weeks [5, 14]: 44%
- Flushing, percentage of weeks [5, 14]: 3%
- Hallucination, percentage of weeks [5, 14]: 16%
- Headache, percentage of weeks [5, 14]: 1%
- Increased confusion, percentage of weeks [5, 14]: 3%
- Muscle pain, percentage of weeks [5, 14]: 10%
- Paranoid reaction, percentage of weeks [5, 14]: 23%
- Somnolence, percentage of weeks [5, 14]: 41%
- Sweating, percentage of weeks [5, 14]: 3%
- Tiredness, percentage of weeks [5, 14]: 36%
- Low levels of dronabinol metabolites detected in urine and feces, time ([6]; after initiation of a supervised abstinence, Dackis et al. 1982): 2-5 weeks
- Presence of tetrahydrocannabinol metabolites in the urine, time after ingestion ([6]; urine, after ingestion of marijuana, Ellis et al. 1985): ≤ 77 days
- PRN psychoactive medication doses, average [7]: 7.2 doses/6 weeks
